In patent US7939689B2, “Short-acting sedative hypnotic agents for anesthesia and sedation” (Theravance, Inc., priority 2002, dated 2011):

How the values were obtained:
guinea pigs = assay: Test A: bolus administration (guinea pigs), loss of righting reflex; type: in vivo, guinea pig; conditions: bolus via ear vein, calculated from dose response
Method: (§1) Test compounds, e.g., representative compounds of the invention as well as the comparison compound, propanidid, were formulated in (1) 10% cremophor EL/90% D5W (5% dextrose in distilled water) (2) 10% Liposyn® III (Intravenous Fat Emulsion, containing (per 100 mL) 10 g soybean oil, 1.2 g egg phosphatides and […]), available from Abbott Laboratories, North Chicago, Ill.; and (3) injections (10) or (11) (as described in Example 16) with Miglyol® 810 (caprylic/capric glyceride). Typically, formulation (1) above was used for bolus dosing and formulations (2) or (3) for infusion dosing. Compounds of the invention and propanidid were synthesized as described in Examples 1-15 below. Propofol formulated in soybean oil, sold as Diprivan® injectable emulsion was obtained from AstraZeneca (Wilmington, Del.).
Bolus Administration (Guinea Pigs)
Adult male guinea pigs were dosed by bolus administration (0.1-0.25 mL volume) via an ear vein. Duration of loss of righting reflex was measured as described above for rats.
Bolus administration (guinea pigs): The potency of compound 1 was also tested in guinea pigs by the analogous procedure. The dose of compound 1 required to produce 2 minutes of loss of righting reflex in guinea pigs was calculated to be 8 mg/kg, as compared with a dose of 13 mg/kg for propanidid.

rats = assay: Test A: administration by infusion (rats), recovery after termination of infusion; type: in vivo, rat (Sprague-Dawley)
Method: as §1
Administration by Infusion (Rats)
Rats (adult Sprague-Dawley) were placed in a perspex restrainer and anesthesia induced by bolus injection via the tail vein (0.15-1 mL/kg over approximately 3 seconds at a dose, estimated from the earlier bolus experiments, to produce anesthesia of approximately 2 minutes duration). Immediately after bolus administration, an infusion (with a duration of typically 20, 180 or 300 minutes), via the tail vein, was commenced (0.075-0.5 mL/kg/min at a half of the bolus dose/min). In some experiments, the initial infusion rate was maintained throughout, while in others, the rate was modified as necessary to maintain a consistent depth of anesthesia (as defined by moderate paw withdrawal in response to noxious pinch). Following completion of the infusion, duration of anesthesia (i.e. duration of loss of righting reflex) and behavioral recovery (i.e. duration of ataxia, sedation or lethargy following return of the righting reflex) was recorded.
Administration by infusion (rats): Recovery times following termination of administration by infusion in rats were determined for compound 1 and for the comparison compounds propofol and propanidid. The duration of the loss of righting reflex (in minutes) following termination of infusion is given as a function of duration of infusion in Table 2 below.

[1] = 20 minute Infusion via tail vein

SMILES	dose required to produce 2 minutes of loss of righting reflex (guinea pigs) [mg/kg]	Duration of Loss of Righting Reflex Following Termination of Infusion (rats; [1]) [min]	Duration of Loss of Righting Reflex Following Termination of Infusion (rats; 3 hour Infusion via tail vein) [min]	Duration of Loss of Righting Reflex Following Termination of Infusion (rats; 5 hour Infusion via tail vein) [min]
CCCOC(=O)Cc1ccc(OCC(=O)N(CC)CC)c(OCC)c1 [Compound 1, [4-[(N,N-Diethylcarbamoyl)methoxy]-3-ethoxyphenyl]acetic acid propyl ester]	8	1.4 ± 0.1	1.7 ± 0.1	2.6 ± 1.0
CCCOC(=O)Cc1ccc(OCC(=O)N(CC)CC)c(OC)c1 [Propanidid, [4-[(N,N-diethylcarbamoyl)methoxy]-3-methoxyphenyl]acetic acid propyl ester]	13	1.6 ± 0.2	1.4 ± 0.1	
CC(C)c1cccc(C(C)C)c1O [Propofol, 2,6-diisopropylphenol]		30.0 ± 2.9	47.8 ± 5.3	59.0 ± 1.4
